Data published in US6043045A, “Screening methods for the identification of novel antibiotics” (The Scripps Research Institute, priority 1998, dated 2000).
“Also recorded” adds a separate entry of the source. Where two headings read alike, the source gives them in different places.

Molecular target: T1, KinA (Bacillus subtilis, UniProt P16497)
T1 construct: made in house
T1 sequence (P16497 1-606): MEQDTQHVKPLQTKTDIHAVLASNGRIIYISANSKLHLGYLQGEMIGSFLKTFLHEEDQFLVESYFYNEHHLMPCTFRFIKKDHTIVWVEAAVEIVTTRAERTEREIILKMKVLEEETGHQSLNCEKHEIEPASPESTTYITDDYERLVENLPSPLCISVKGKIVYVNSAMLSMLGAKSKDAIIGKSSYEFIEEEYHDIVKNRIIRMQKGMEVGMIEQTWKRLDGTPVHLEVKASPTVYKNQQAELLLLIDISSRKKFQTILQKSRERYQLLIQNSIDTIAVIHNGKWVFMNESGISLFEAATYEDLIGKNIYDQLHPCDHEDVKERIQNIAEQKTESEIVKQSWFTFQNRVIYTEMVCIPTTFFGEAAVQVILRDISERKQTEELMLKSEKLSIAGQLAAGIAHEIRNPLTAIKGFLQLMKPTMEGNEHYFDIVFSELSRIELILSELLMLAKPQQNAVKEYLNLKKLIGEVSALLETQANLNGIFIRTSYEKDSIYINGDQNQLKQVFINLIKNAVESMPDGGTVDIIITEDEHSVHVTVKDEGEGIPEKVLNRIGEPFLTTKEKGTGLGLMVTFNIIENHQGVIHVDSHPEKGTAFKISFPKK
Assay: biochemical
Assay type: biochemical
Details: for inhibition of KinA phosphorylation of SpoOF (in words): tested at 0.08% final concentration
Protocol: The reactions were performed in a 25 μl final volume containing 100 mM Tris pH 8.0, 100 mM KCl, 2 mM MgCl2, 0.5 mM dithiothreitol, 10% (v/v) glycerol, 0.1 % (w/v) gelatin, 4% (v/v) ethanol, 200 μM total ATP containing approximately 1.5 μCi [gamma-^32 P]ATP (New England Nuclear, 6000 Ci/mMol, 150 μCi/ml), 300 μM SpoOF protein and 0.04 μM KinA protein (Perego, et al., J. Bacteriol. 171: 6187-6196 (1989)) unless otherwise indicated. Fatty acids were added to varying final concentration from solutions made with 100% ethanol (the 4% ethanol concentration in the reaction mixture reflects these addition, or in the case of controls, the addition of ethanol alone). The reactions were initiated by addition of the ATP and incubated for thirty minutes at room temperature.
When higher KinA concentrations were used, the time of incubation was adjusted accordingly. The reactions were stopped by adding an equal volume of loading dye (0.25 M Tris pH 6.8, 20% (v/v) glycerol, 1% sodium dodecyl sulfate (w/v), 140 mM β-mercaptoethanol, 0.05% (w/v) bromophenol blue) and aliquots were loaded onto polyacrylamide gels (5% stacking, 15% separating, using the buffer system of Laemmi, Id., 1970).
The gels were run for approximately 16 hours at 10 mA constant current. The gels were covered with plastic wrap and subjected to autoradiography using Kodak XOmat RP1 film. Quantitation of activity was accomplished by cutting gels slices containing the appropriate phosphoprotein (usually SpoOF~P, see Section E below) and counting the Cerenkov radiation in a Beckman LF7500 scintillation counter (Beckman Instruments, Fullerton, Calif.). Equal-sized slices from blank areas of the gels were also counted and used to adjust for background. Percentage of activity was calculated using the value of the control reaction as 100%.
To quantify our initial assessment of inhibitory properties, the I0.5 values (at 4×10^-8 M KinA) were determined for each of the fatty acids. […] For example, the percent activity at an indicated oleic acid concentration is the ratio (×100) of the incorporation of ^32 P (from [γ^32 P]ATP) into the SpoOF protein relative to the incorporation in the control reaction containing no inhibitor. Typically, data are gathered from at least two different experiments. The I0.5 value is the concentration--e.g., the oleic acid concentration--corresponding to 50% activity as determined from the relevant graph.

[1] = Table 4, I0.5 at 4×10^-8 M KinA, 32P incorporation into SpoOF, read-out: Fatty Acid Inhibitors of KinA Activity (category by I0.5)
[2] = at 4×10^-8 M KinA, read-out: I0.5 value (concentration corresponding to 50% KinA activity)
[3] = Fatty Acid Inhibitors of KinA Activity (category by I0.5), Table 4, I0.5 at 4×10^-8 M KinA, 32P incorporation into SpoOF

| Compound | inhibitory effect on KinA in vitro (in words) | IC50 [1] | also measured |
| --- | --- | --- | --- |
| CC(C)CCCCCCCCCCC(=O)O [12-methyltridecanoic] | weak inhibitors | 100 to 500 µM | inhibitory effect on KinA in vitro (in words) (listed as 12-methyltridecanoic acid): weak in vitro inhibitors; inhibitory effect on KinA in vitro (in words) (listed as iso 14:0): weak inhibitory properties |
| CC(C)CCCCCCCCCCCC(=O)O [13-methyltetradecanoic] | weak inhibitors | 100 to 500 µM | IC50 [2]: 400 µM; inhibitory effect on KinA in vitro (in words) (listed as 13-methyltetradecanoic acid): weak in vitro inhibitors; inhibitory effect on KinA in vitro (in words) (listed as iso 15:0): weak inhibitory properties |
| CC(C)CCCCCCCCCCCCC(=O)O [14-methylpentadecanoic] | not inhibitors | > 1000 µM |  |
| CC(C)CCCCCCCCCCCCCC(=O)O [15-methylhexadecanoic] | not inhibitors | > 1000 µM |  |
| CC(C)CCCCCCCCCCCCCCC(=O)O [16-methylheptadecanoic] | not inhibitors | > 1000 µM |  |
| CCCCC/C=C\C/C=C\C/C=C\C/C=C\CCCC(=O)O [all cis-5,8,11,14-eicosatetraenoic] |  |  | IC50 [3]: < 70 µM |
| CC/C=C\C/C=C\C/C=C\CCCCCCCC(=O)O [all cis-9,12,15-octadecanoic] |  | < 70 µM |  |
| CCCCC/C=C\C/C=C\CCCCCCCC(=O)O [cis,cis-9,12-octadecenoic] |  | < 70 µM |  |
| CCCCCCCCCCC/C=C\CCCCC(=O)O [cis-6-octadecanoic] |  | < 70 µM |  |
| CCCCCC/C=C\CCCCCCCC(=O)O [cis-9-hexadecanoic] | potent inhibitors | < 70 µM |  |
| CCCC/C=C\CCCCCCCC(=O)O [cis-9-tetradecenoic] | only a weak inhibitor | 100 to 500 µM | IC50 [2]: 200 µM |
| CCCCCCCC/C=C\CCCCCCCCCC(=O)O [cis-11-eicosenoic] |  | < 70 µM |  |
| CCCCCC/C=C\CCCCCCCCCC(=O)O [cis-11-octadecanoic] | potent inhibitors |  | IC50 [3]: < 70 µM |
| CCCCCCCC/C=C\CCCCCCCCCCCC(=O)O [cis-13-docosenoic] | non-inhibitory | > 1000 µM |  |
| CCCCCCCC/C=C\CCCCCCCCCCCCCC(=O)O [cis-15-tetracosenoic] | non-inhibitory |  | IC50 [3]: > 1000 µM |
| CCCCCCCCCC(=O)O [decanoic] | not inhibitors |  | IC50 [3]: > 1000 µM |

| Compound | inhibitory effect on KinA in vitro (in words) | IC50 [1] | also measured |
| --- | --- | --- | --- |
| CCCCCCCCCCCC(=O)O [dodecanoic] | not inhibitors | > 1000 µM |  |
| CCCCCCCCCCCCCCCCCCCC(=O)O [eicosanoic] |  | > 1000 µM |  |
| O=P(O)(O)OCC(O)CO (centres unmarked) [glycerophosphate] |  |  | inhibition of KinA phosphorylation of SpoOF (in words): Only oleic acid and stearic acid were inhibitory |
| CCCCCCCCCCCCCCCCC(=O)O [heptadecanoic] |  | > 1000 µM |  |
| CCCCCCCCCCCCCCCC(=O)O [hexadecanoic] | little or no inhibitory effect | > 1000 µM | inhibition of KinA phosphorylation of SpoOF (in words): Only oleic acid and stearic acid were inhibitory |
| CCCCCC(=O)O [hexanoic] | not inhibitors | > 1000 µM |  |
| CCCCCCCCCCCCCCCCCC(=O)O [octadecanoic] |  |  | IC50 [3]: 100 to 500 µM; IC50 (I0.5 value (concentration corresponding to 50% KinA activity), at 4×10^-8 M KinA): 500 µM; inhibitory effect on KinA in vitro (in words) (listed as stearic): little or no inhibitory effect; inhibitory effect on KinA in vitro (in words) (listed as stearic acid): weak inhibitor; also recorded: very weak inhibitor; inhibition of KinA phosphorylation of SpoOF (in words): weak inhibition |
| CCCCCCCC(=O)O [octanoic] | not inhibitors | > 1000 µM |  |
| CCCCCCCCCCCCCC(=O)O [tetradecanoic] |  | > 1000 µM |  |
| C/C=C/C(=O)O [trans-2-butenoic] |  | > 1000 µM |  |
| CCCCCCCC/C=C/CCCCCCCC(=O)O [trans-9-octadecenoic] |  | > 1000 µM | inhibitory effect on KinA in vitro (in words) (listed as elaidic): little or no inhibitory effect; also recorded: not inhibitory |
| CCCCCC/C=C/CCCCCCCCCC(=O)O [trans-11-octadecenoic] |  |  | IC50 [3]: > 1000 µM; inhibitory effect on KinA in vitro (in words) (listed as trans-vaccenic): little or no inhibitory effect; also recorded: not inhibitory |
| L-α-glycerophosphatidylcholine |  |  | inhibition of KinA phosphorylation of SpoOF (in words): Only oleic acid and stearic acid were inhibitory |
| L-α-phosphatidic acid |  |  | inhibition of KinA phosphorylation of SpoOF (in words): Only oleic acid and stearic acid were inhibitory |
| L-α-phosphatidylcholine |  |  | inhibition of KinA phosphorylation of SpoOF (in words): Only oleic acid and stearic acid were inhibitory |
